Test [1] deals with T1, recombinant N-terminal MLH1 (residues 15-340) (Homo sapiens, UniProt P40692).
T1 construct: recombinant N-terminal MLH1 (residues 15-340)
T1 sequence (P40692 15-340): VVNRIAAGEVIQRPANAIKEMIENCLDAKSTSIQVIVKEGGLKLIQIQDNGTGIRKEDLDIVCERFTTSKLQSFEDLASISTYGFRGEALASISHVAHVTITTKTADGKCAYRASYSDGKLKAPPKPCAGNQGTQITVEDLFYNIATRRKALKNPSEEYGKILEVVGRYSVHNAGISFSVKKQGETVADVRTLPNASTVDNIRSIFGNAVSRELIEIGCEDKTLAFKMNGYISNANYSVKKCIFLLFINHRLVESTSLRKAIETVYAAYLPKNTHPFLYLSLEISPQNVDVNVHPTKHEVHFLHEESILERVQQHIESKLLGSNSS
As to the kind of experiment: Fluorescence Polarisation Assay for MLH1. Format: binding. Particulars: fluorescence polarisation probe displacement; 100 nM N-terminal MLH1, 5 nM probe compound. How it is done: Fluorescence Polarisation Assay for MLH1
Test compounds, as 10 mM DMSO stocks, were dispensed into a 384-well Low Flange Black Flat Bottom Polystyrene Non-binding Surface plate (Corning®, item number 3575) using a Labcyte Echo acoustic liquid handler. Test compounds were added to wells in columns 1-22 whilst DMSO was added to wells in columns 23 and 24 in order to normalise the plate. 20 μL of a 2× solution (200 nM) of recombinant N-terminal MLH1 (residues 15-340) in assay buffer (25 mM HEPES, pH 7.5, 250 mM NaCl, 10 mM MgCl2, 0.01% Triton X-100, 5 mM dithiothreitol) was added to all wells in columns 1-23 and 20 μL assay buffer was added to all wells in column 24 using an E1-ClipTip pipette (ThermoFisher). Plates were centrifuged for 1 minute at 250×g and were incubated at room temperature for 30 minutes prior to the addition of 20 μL of 2× (10 nM) 5-((5-(4-((2-(2,4-dihydroxy-5-isopropylbenzoyl)isoindolin-5-yl)methyl)piperazin-1-yl)pentyl)carbamoyl)-2-(6-(dimethylamino)-3-(dimethyliminio)-3H-xanthen-9-yl)benzoate in assay buffer (prepared from a 1 mM DMSO stock) with an E1-ClipTip pipette (ThermoFisher). The final concentration of N-terminal MLH1 was 100 nM and the final concentration of the probe compound was 5 nM. Compound plates were centrifuged for 1 minute at 250×g for 1 minute and immediately read on a PheraStar FSX (fitted with 384-well aperture spoon and 590 675 675 FP optic module). The gain and focus were adjusted before each plate was read so that the polarisation of a no enzyme control (column 24) was equal to 35 mP. Data were normalised against the no inhibitor controls (column 23) and no enzyme controls (column 24).
(In general: Polarisation of emitted light reports the rotation of a fluorescent probe.)

In test [2] the target is T2, recombinant N-terminal PMS2 (residues 1-365) (Homo sapiens, UniProt P54278).
T2 construct: recombinant N-terminal PMS2 (residues 1-365)
T2 sequence (P54278 1-365): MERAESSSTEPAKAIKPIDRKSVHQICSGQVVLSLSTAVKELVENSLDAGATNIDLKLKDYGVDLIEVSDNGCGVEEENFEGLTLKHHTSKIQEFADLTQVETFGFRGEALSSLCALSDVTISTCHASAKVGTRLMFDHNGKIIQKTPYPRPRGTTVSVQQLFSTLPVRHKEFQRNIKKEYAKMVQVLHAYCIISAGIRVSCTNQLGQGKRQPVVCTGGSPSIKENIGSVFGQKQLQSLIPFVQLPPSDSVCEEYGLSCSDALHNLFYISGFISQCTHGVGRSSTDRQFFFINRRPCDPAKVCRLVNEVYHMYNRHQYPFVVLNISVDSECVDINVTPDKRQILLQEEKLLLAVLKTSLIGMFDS
As to the kind of experiment: Fluorescence Polarisation Assay for PMS2. In kind it is binding. Particulars: fluorescence polarisation probe displacement; 10 nM N-terminal PMS2, 5 nM probe compound; read-out: PMS2 IC50. How it is done:
Fluorescence Polarisation Assay for PMS2
For single point screening, test compounds were added to wells in columns 1-22 whilst DMSO was added to wells in columns 23 and 24 in order to normalise the plate. For potency determination, serial dilutions of test compounds were added to wells in columns 3-22 and DMSO volume was normalised across the plate.
20 μL assay buffer was added to all wells in columns 1 and 24 (column 24 only for single point screening) using a MultiDrop Combi (ThermoFisher). Plates were centrifuged for 1 minute at 250×g and were incubated at room temperature for 30 minutes prior to the addition of 20 μL of 2× (20 nM) of 5-((5-(4-((2-(2,4-dihydroxy-5-isopropylbenzoyl)isoindolin-5-yl)methyl)piperazin-1-yl)pentyl)carbamoyl)-2-(6-(dimethylamino)-3-(dimethyliminio)-3H-xanthen-9-yl)benzoate (referred to hereinafter as “probe compound”) in assay buffer (prepared from a 100 μM DMSO stock) with a MultiDrop Combi (ThermoFisher). The final concentration of N-terminal PMS2 was 10 nM and the final concentration of probe compound was 5 nM.
Compound plates were centrifuged for 1 minute at 250×g for 1 minute and were incubated at room temperature for 1 hour before being read on a PheraStar FSX (fitted with 384-well aperture spoon and 540 590 590 FP optic module). The gain and focus were adjusted before each plate was read so that the polarisation of a no enzyme control (column 24) was equal to 35 mP. Data were normalised against the no inhibitor controls (column 23) and no enzyme controls (column 24).

Here are results for 20 compounds from US20240293392A1, “INHIBITOR COMPOUNDS” (NeoPhore Limited, priority 2021, published 2024).

For the compound `O=C(c1c(O)cc(O)cc1OCc1ccccc1)N1Cc2cccc(NCC3CCCO3)c2C1` (stereo not shown) [Example 33, (2-(Benzyloxy)-4,6-dihydroxyphenyl)(4-(((tetrahydrofuran-2-yl)methyl)amino)isoindolin-2-yl)methanone], the 50% inhibitory concentration (IC50) in test [1] was under 1000 nM; in test [2] it was 1000 to 10000 nM.
With `O=C(c1c(O)cc(O)cc1OCc1ccccc1)N1Cc2cccc(Nc3cn[nH]c3)c2C1` [Example 34, (4-((1H-Pyrazol-4-yl)amino)isoindolin-2-yl)(2-(benzyloxy)-4,6-dihydroxyphenyl)methanone], the IC50 in test [1] is under 1000 nM; in test [2], 1000 to 10000 nM.
Consider `Cn1ncc(Nc2cccc3c2CN(C(=O)c2c(O)cc(O)cc2OCc2ccccc2)C3)n1` [Example 35, (2-(Benzyloxy)-4,6-dihydroxyphenyl)(4-((2-methyl-2H-1,2,3-triazol-4-yl)amino)isoindolin-2-yl)methanone], for which the IC50 is under 1000 nM in test [1] and 1000 to 10000 nM in test [2].
For the compound `CC(=O)N1CCC(Nc2cccc3c2CN(C(=O)c2c(O)cc(O)cc2OCc2ccccc2)C3)C1` (stereo not shown) [Example 36, 1-(3-((2-(2-(Benzyloxy)-4,6-dihydroxybenzoyl)isoindolin-4-yl)amino)pyrrolidin-1-yl)ethan-1-one], the figures for the half-inhibitory concentration (IC50) in test [1] and in test [2] were under 1000 nM and 1000 to 10000 nM, respectively.
Regarding `O=C(c1c(O)cc(O)cc1OCc1ccc(F)cc1)N1Cc2cccc(NC3CCOC3)c2C1` (stereo not shown) [Example 37, (2-((4-Fluorobenzyl)oxy)-4,6-dihydroxyphenyl)(4-((tetrahydrofuran-3-yl)amino)isoindolin-2-yl)methanone], the half-inhibitory concentration (IC50) in test [1] is under 1000 nM; in test [2] it was 1000 to 10000 nM.
With `O=C(c1c(O)cc(O)cc1OCc1ccc(F)c(F)c1)N1Cc2cccc(NC3CCOC3)c2C1` (stereo not shown) [Example 38, (2-((3,4-Difluorobenzyl)oxy)-4,6-dihydroxyphenyl)(4-((tetrahydrofuran-3-yl)amino)isoindolin-2-yl)methanone], the IC50 is under 1000 nM in test [1] and 1000 to 10000 nM in test [2].
For the compound `COc1ccc(COc2cc(O)cc(O)c2C(=O)N2Cc3cccc(NC4CCOC4)c3C2)cc1` (stereo not shown) [Example 39, (2,4-Dihydroxy-6-((4-methoxybenzyl)oxy)phenyl)(4-((tetrahydrofuran-3-yl)amino)isoindolin-2-yl)methanone], the results for the IC50 in test [1] and in test [2] were under 1000 nM and 1000 to 10000 nM, respectively.
The like results for `O=C(c1c(O)cc(O)cc1OCc1ccccn1)N1Cc2cccc(NC3CCOC3)c2C1` (stereo not shown) [Example 40, (2,4-Dihydroxy-6-(pyridin-2-ylmethoxy)phenyl)(4-((tetrahydrofuran-3-yl)amino)isoindolin-2-yl)methanone] were, in that order, under 1000 nM and over 10000 nM.
In the case of `O=C(c1c(O)cc(O)cc1OCc1ccccc1)N1CCc2cccc(NC3COC3)c2C1` [Example 41, (2-(Benzyloxy)-4,6-dihydroxyphenyl)(8-(oxetan-3-ylamino)-3,4-dihydroisoquinolin-2(1H)-yl)methanone], the IC50 in test [1] is under 1000 nM; in test [2], 1000 to 10000 nM.
With `CN1CC(Nc2cccc3c2CN(C(=O)c2c(O)cc(O)cc2OCc2ccccc2)CC3)CC1=O` (stereo not shown) [Example 42, 4-((2-(2-(Benzyloxy)-4,6-dihydroxybenzoyl)-1,2,3,4-tetrahydroisoquinolin-8-yl)amino)-1-methylpyrrolidin-2-one], the IC50 in test [1] and in test [2] was under 1000 nM throughout.
Take `CNc1cccc2c1CN(C(=O)c1c(O)cc(O)cc1OCc1ccccc1)CC2` [Example 43, (2-(Benzyloxy)-4,6-dihydroxyphenyl)(8-(methylamino)-3,4-dihydroisoquinolin-2(1H)-yl)methanone]: the IC50 in test [1] was under 1000 nM; in test [2] it was 1000 to 10000 nM.
As to `COCCNc1cccc2c1CN(C(=O)c1c(O)cc(O)cc1OCc1ccccc1)CC2` [Example 44, (2-(Benzyloxy)-4,6-dihydroxyphenyl)(8-((2-methoxyethyl)amino)-3,4-dihydroisoquinolin-2(1H)-yl)methanone], the IC50 in test [1] is under 1000 nM; in test [2], 1000 to 10000 nM.
As to `CC(Nc1cccc2c1CN(C(=O)c1c(O)cc(O)cc1OCc1ccccc1)C2)C1COC1` (stereo not shown) [Example 45, (2-(Benzyloxy)-4,6-dihydroxyphenyl)(4-((1-(oxetan-3-yl)ethyl)amino)isoindolin-2-yl)methanone], the IC50 in test [1] and in test [2] was 1000 to 10000 nM each time.
`CN(C)Cc1ccc2c(c1)CCN(C(=O)c1c(O)cc(O)cc1OCc1ccccc1)C2` [Example 46, (2-Benzyloxy-4,6-dihydroxy-phenyl)-[6-[(dimethylamino)methyl]-3,4-dihydro-1H-isoquinolin-2-yl]methanone]: the IC50 in test [1] and in test [2] was 1000 to 10000 nM throughout.
Regarding `CN(C)Cc1ccc2c(c1)CN(C(=O)c1c(O)cc(O)cc1OCc1ccccc1)CC2` [Example 47, (2-Benzyloxy-4,6-dihydroxy-phenyl)-[7-[(dimethylamino)methyl]-3,4-dihydro-1H-isoquinolin-2-yl]methanone], the IC50 in test [1] and in test [2] was 1000 to 10000 nM each time.
As to `COc1ccc2c(c1)CCN(C(=O)c1c(O)cc(O)cc1OCc1ccccc1)C2` [Example 48, (2-Benzyloxy-4,6-dihydroxy-phenyl)-(6-methoxy-3,4-dihydro-1H-isoquinolin-2-yl)methanone], the IC50 in test [1] and in test [2] was 1000 to 10000 nM each time.
`COc1ccc2c(c1)CN(C(=O)c1c(O)cc(O)cc1OCc1ccccc1)CC2` [Example 49, (2-Benzyloxy-4,6-dihydroxy-phenyl)-(7-methoxy-3,4-dihydro-1H-isoquinolin-2-yl)methanone]: the IC50 in test [1] and in test [2] was 1000 to 10000 nM each time.
For the compound `CC12CC(Nc3cccc4c3CN(C(=O)c3c(O)cc(O)cc3OCc3ccccc3)C4)(CO1)C2` [Example 52, (2-(Benzyloxy)-4,6-dihydroxyphenyl)(4-((1-methyl-2-oxabicyclo[2.1.1]hexan-4-yl)amino)isoindolin-2-yl)methanone], the concentration for half-maximal inhibition (IC50) in test [1] was under 1000 nM; in test [2], 1000 to 10000 nM.
The like results for `O=C(c1c(O)cc(O)cc1OCc1ccccc1)N1Cc2cccc(NC34CCC(C3)OC4)c2C1` (stereo not shown) [Example 53, (4-((2-Oxabicyclo[2.2.1]heptan-4-yl)amino)isoindolin-2-yl)(2-(benzyloxy)-4,6-dihydroxyphenyl)methanone] were, in that order, under 1000 nM and 1000 to 10000 nM.
`COc1cc2c(c(NC3CCOC3)c1)CN(C(=O)c1c(O)cc(O)cc1OCc1ccccc1)CC2` (stereo not shown) [Example 54, (2-(Benzyloxy)-4,6-dihydroxyphenyl)(6-methoxy-8-((tetrahydrofuran-3-yl)amino)-3,4-dihydroisoquinolin-2(1H)-yl)methanone]: the IC50 in test [1] was under 1000 nM; in test [2] it was 1000 to 10000 nM.

What is called IC50 is the point on the concentration scale where inhibition reaches its midpoint.
